Data on 1 compound can be found in patent publication US20130266636A1, “METHODS FOR BLOCKING CELL PROLIFERATION AND TREATING DISEASES AND CONDITIONS RESPONSIVE TO CELL GROWTH INHIBITION” (THE REGENTS OF THE UNIVERSITY OF CALIFORNIA, priority 2010, published 2013).

Experiment [1] relates to U-87 human glioblastoma cells. Put plainly: Cells in pro-metaphase in orthotopic brain tumor xenografts. The settings on record: systemic KG5 50 mg/Kg, after three days. Type of experiment: in vivo, mice. How it is done: Phosphorylation of CRAF on serine 338 has been linked to cell proliferation survival as well as breast cancer progression^9-11,14-16. To determine whether KG5 could similarly regulate phospho-5338 RAF in tumors, we analyzed orthotopic […] and brain tumor tissues for the presence of this marker before or after systemic delivery of the drug.
Tumors were generated by injection of RFP-labeled U-87 human glioblastoma cells (10^5 tumorcells in 2 μl of sterile PBS) into the brain of 6-8 week old female nude mice. Tumors were established for 3 weeks before beginning dosing. Mice were dosed with vehicle (10% HS-15) or 50 mg/kg KG5 (i.p. bid) for 3 days prior to harvest. Alternatively, U-87 cells stably expressing WT CRAF or the phospho-mimetic S338D CRAF mutant were injected into the brain of 6-8 week old female nude mice. Brains were harvested at day 15 and fluorescence images recorded using the IVIS-200™ imaging system (Xenogen Corp., Hopkinton, Mass.). Tumor sizes were measured as a function of fluorescence intensity using the ROI function of the IVIS Living Image Software. […]

The target of experiment [2] is T1, RAF dimerization (BRAF and CRAF) (Homo sapiens, UniProt P04049). Description: RAF dimerization, immunoblot of BRAF and CRAF immunoprecipitates from A549 cells. The format is cell-based. How it is done: FIG. 11 illustrates immunoblot analysis of BRAF and CRAF immunoprecipitates from A549 cells treated with PD0325901, Sorafenib, L-779450, PLX4720, KG5 or KG1.
T1 sequence (P04049 whole entry): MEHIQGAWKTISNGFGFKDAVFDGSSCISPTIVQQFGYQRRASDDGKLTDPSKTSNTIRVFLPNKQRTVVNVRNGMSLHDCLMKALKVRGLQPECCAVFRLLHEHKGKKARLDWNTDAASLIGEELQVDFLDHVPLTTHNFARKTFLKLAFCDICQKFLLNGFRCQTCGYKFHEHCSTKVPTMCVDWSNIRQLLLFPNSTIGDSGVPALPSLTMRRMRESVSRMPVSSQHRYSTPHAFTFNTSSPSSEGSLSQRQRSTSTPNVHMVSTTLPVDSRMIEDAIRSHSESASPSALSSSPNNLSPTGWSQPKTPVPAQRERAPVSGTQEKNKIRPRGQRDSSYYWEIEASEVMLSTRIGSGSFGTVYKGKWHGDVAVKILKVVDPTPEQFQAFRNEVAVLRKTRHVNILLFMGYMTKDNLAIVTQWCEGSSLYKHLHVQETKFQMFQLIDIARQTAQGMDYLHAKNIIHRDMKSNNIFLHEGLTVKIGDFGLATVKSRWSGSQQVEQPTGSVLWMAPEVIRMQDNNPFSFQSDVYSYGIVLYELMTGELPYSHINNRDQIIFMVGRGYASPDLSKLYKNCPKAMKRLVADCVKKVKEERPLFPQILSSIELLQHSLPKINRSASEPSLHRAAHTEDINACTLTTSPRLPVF
(§1) Immunoprecipitation and Immunoblot Analysis Cells were lysed in either NP40 lysis buffer (150 mM NaCl, 50 mM Tris Base pH 7.4, 1% NP40) or RIPA buffer (50 mM Tris pH 7.4, 100 mM NaCl, 0.1% SDS) supplemented with complete protease inhibitor mixture (Roche), 50 mM NaF and 1 mM Na3VO4 and centrifuged at 13,000×g for 10 min at 4° C. Protein concentration was determined by BCA assay. […] of protein were immunoprecipitated with […] of anti-Flag (Sigma), anti-CRAF (BD Pharmingen), anti-Plk1 (Abcam), anti-γ-Tubulin (sigma) or anti-cenpF (Santa Cruz) antibodies overnight at 4° C. followed by capture with 25 μl of protein A/G (Pierce). Beads were washed five times, eluted in boiling Laemmli buffer, resolved on 10% SDS-PAGE and immunoblotting was performed with anti-Plk1 antibody (Abcam), anti-CRAF antibody (BD Pharmingen), anti-Aurora A (Abcam), anti-phospho-S338 CRAF (Cell Signaling), anti-phospho-T210 Plk1 or anti-phospho-T288 Aurora A (Cell signaling) diluted 1:1000. For immunoblot analysis, […] of protein was boiled in […]
A general note: In western blotting, separated proteins are transferred to a membrane and probed.

The conditions of experiment [3]: bFGF- or VEGF-stimulated endothelial cells; cited from earlier work.
In the next experiment the target is c-Kit (Homo sapiens, UniProt P10721). To be noted: cited from earlier work.
c-Kit, sequence (P10721 26-976): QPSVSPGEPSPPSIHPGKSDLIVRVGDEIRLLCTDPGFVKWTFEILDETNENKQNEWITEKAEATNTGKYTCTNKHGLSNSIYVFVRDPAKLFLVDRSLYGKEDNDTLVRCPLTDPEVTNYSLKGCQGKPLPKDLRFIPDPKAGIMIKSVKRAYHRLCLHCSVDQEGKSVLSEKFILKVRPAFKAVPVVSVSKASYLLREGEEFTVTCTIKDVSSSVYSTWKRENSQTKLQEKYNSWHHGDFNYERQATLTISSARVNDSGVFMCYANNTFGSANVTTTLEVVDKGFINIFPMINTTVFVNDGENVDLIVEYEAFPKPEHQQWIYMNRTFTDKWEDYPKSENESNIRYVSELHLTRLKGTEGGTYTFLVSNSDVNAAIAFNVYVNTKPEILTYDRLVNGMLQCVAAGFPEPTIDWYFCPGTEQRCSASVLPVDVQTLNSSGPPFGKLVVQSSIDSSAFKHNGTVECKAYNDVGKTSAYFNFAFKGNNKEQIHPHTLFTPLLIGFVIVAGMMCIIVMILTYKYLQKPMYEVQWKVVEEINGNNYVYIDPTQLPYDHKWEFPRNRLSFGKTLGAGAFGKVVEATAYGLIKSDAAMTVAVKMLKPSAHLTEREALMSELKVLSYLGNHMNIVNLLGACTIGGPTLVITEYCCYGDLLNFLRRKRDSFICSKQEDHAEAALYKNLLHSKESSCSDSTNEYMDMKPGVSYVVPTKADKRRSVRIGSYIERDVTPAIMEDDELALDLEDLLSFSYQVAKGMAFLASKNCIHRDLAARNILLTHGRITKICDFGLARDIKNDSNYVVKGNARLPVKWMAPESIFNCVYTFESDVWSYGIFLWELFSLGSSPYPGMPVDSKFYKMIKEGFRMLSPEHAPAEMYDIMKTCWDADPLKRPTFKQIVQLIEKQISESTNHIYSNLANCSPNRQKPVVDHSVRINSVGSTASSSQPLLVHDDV
In experiment [4] the target is T1, RAF dimerization (BRAF and CRAF). Put plainly: RAF dimerization, immunoblot of BRAF and CRAF immunoprecipitates from XPA-1 cells. The format is cell-based. Also on record: immunoblot analysis of BRAF and CRAF immunoprecipitates from XPA-1 cells; endogenous in cells; host or cells: XPA-1. How it is done: FIGS. 6 and 7 illustrate immunoblot analysis of CRAF immunoprecipitated from XPA-1 cells treated with KG5 and KG38.
FIG. 14 illustrates immunoblot analysis of BRAF and CRAF immunoprecipitates from XPA-1 cells treated with PD0325901, Sorafenib, L-779450, PLX4720, KG5 or KG1.
as §1

On to `CSc1nc(N)cc(Oc2ccc(-c3nnc(Nc4cccc(C(F)(F)F)c4)[nH]3)cc2)n1` [KG5], for which, in experiment [1], the “cells at pro-metaphase in orthotopic brain tumor tissues” value is on record as “accumulation of cells at pro-metaphase”. For the same compound, the RAF dimerization result in experiment [2] and in experiment [4] was “prevents RAF dimerization” throughout. Moreover, the p-Aid entry in experiment [3] was “did not suppress”. Moreover, the “inhibition of c-Kit” value on c-Kit is “inhibits”.
